PubChem BioAssay (NCI)
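Protocol summary: plate cells (96-well), add compound at 5 concentrations, incubate 48 h, interpolate endpoints linearly. Abbreviation: GI50, concentration required for 50% inhibition of growth. At the TGI there is no net growth.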

Columns and labels:
Test in all cases: growth of human tumour cells (NCI), 48 h
M14 melanoma = system: M14 melanoma
TK-10 renal = system: TK-10 renal
SR leukemia = system: SR leukemia
CAKI-1 renal = system: CAKI-1 renal
BT-549 breast = system: BT-549 breast
UACC-62 melanoma = system: UACC-62 melanoma
NCI-H522 lung = system: NCI-H522 lung
HCT-15 colon = system: HCT-15 colon
NCI-H460 lung = system: NCI-H460 lung
SNB-75 CNS = system: SNB-75 CNS
PC-3 prostate = system: PC-3 prostate
OVCAR-4 ovarian = system: OVCAR-4 ovarian
786-0 renal = system: 786-0 renal
SF-268 CNS = system: SF-268 CNS
SF-295 CNS = system: SF-295 CNS
SK-MEL-28 melanoma = system: SK-MEL-28 melanoma
EKVX NSCLC = system: EKVX NSCLC
A549 NSCLC = system: A549 NSCLC
HOP-62 NSCLC = system: HOP-62 NSCLC
MDA-MB-231 breast = system: MDA-MB-231 breast
DU-145 prostate = system: DU-145 prostate
HCC-2998 colon = system: HCC-2998 colon
UO-31 renal = system: UO-31 renal
K-562 leukemia = system: K-562 leukemia
A498 renal = system: A498 renal
MALME-3M melanoma = system: MALME-3M melanoma
OVCAR-8 ovarian = system: OVCAR-8 ovarian
HS 578T breast = system: HS 578T breast
U251 CNS = system: U251 CNS
MDA-MB-468 breast = system: MDA-MB-468 breast
KM12 colon = system: KM12 colon
HCT-116 colon = system: HCT-116 colon
HL-60(TB) leukemia = system: HL-60(TB) leukemia
SK-MEL-2 melanoma = system: SK-MEL-2 melanoma
SW-620 colon = system: SW-620 colon
RPMI-8226 leukemia = system: RPMI-8226 leukemia
SNB-19 CNS = system: SNB-19 CNS
RXF 393 renal = system: RXF 393 renal
SN12C renal = system: SN12C renal
MCF7 breast = system: MCF7 breast
COLO 205 colon = system: COLO 205 colon
UACC-257 melanoma = system: UACC-257 melanoma
NCI/ADR-RES ovarian = system: NCI/ADR-RES ovarian
OVCAR-3 ovarian = system: OVCAR-3 ovarian
SK-OV-3 ovarian = system: SK-OV-3 ovarian
NCI-H226 lung = system: NCI-H226 lung
HOP-92 NSCLC = system: HOP-92 NSCLC
NCI-H23 lung = system: NCI-H23 lung
T-47D breast = system: T-47D breast
MOLT-4 leukemia = system: MOLT-4 leukemia
OVCAR-5 ovarian = system: OVCAR-5 ovarian
IGROV1 ovarian = system: IGROV1 ovarian
LOX IMVI melanoma = system: LOX IMVI melanoma
MDA-MB-435 = system: MDA-MB-435
SK-MEL-5 melanoma = system: SK-MEL-5 melanoma
ACHN renal = system: ACHN renal
SF-539 CNS = system: SF-539 CNS
CCRF-CEM leukemia = system: CCRF-CEM leukemia
HT29 colon = system: HT29 colon

Question: For `Fc1ccc(/C=C/c2nc3ccccc3n3c(-c4ccc(Cl)cc4)nnc23)cc1`, which GI50 (M14 melanoma) is on record?
Answer: 14.2 µM

Question: And the TGI (M14 melanoma)?
Answer: 32.9 µM

Question: What about the GI50 (TK-10 renal) of the same molecule?
Answer: 36.9 µM

Question: What about the TGI (TK-10 renal) of the same molecule?
Answer: > 100 µM

Question: What about the GI50 (SR leukemia) of the same molecule?
Answer: 2.44 µM

Question: And the TGI (SR leukemia)?
Answer: 19.7 µM

Question: And the GI50 (CAKI-1 renal)?
Answer: 44.2 µM

Question: And the TGI (CAKI-1 renal)?
Answer: > 100 µM

Question: What about the GI50 (BT-549 breast) of the same molecule?
Answer: 16 µM

Question: And the TGI (BT-549 breast)?
Answer: 72.6 µM

Question: And the GI50 (UACC-62 melanoma)?
Answer: 21 µM

Question: What about the TGI (UACC-62 melanoma) of the same molecule?
Answer: > 100 µM

Question: What about the GI50 (NCI-H522 lung) of the same molecule?
Answer: 1.47 µM

Question: What about the TGI (NCI-H522 lung) of the same molecule?
Answer: 3.01 µM

Question: What about the GI50 (HCT-15 colon) of the same molecule?
Answer: 9.36 µM

Question: And the TGI (HCT-15 colon)?
Answer: 25.4 µM

Question: What about the GI50 (NCI-H460 lung) of the same molecule?
Answer: 25.3 µM

Question: And the TGI (NCI-H460 lung)?
Answer: > 100 µM

Question: What about the GI50 (SNB-75 CNS) of the same molecule?
Answer: 4.47 µM

Question: What about the TGI (SNB-75 CNS) of the same molecule?
Answer: > 100 µM

Question: And the GI50 (PC-3 prostate)?
Answer: 30.4 µM

Question: What about the TGI (PC-3 prostate) of the same molecule?
Answer: > 100 µM

Question: What about the GI50 (OVCAR-4 ovarian) of the same molecule?
Answer: 20.1 µM

Question: What about the TGI (OVCAR-4 ovarian) of the same molecule?
Answer: 95.6 µM

Question: What about the GI50 (786-0 renal) of the same molecule?
Answer: 31.5 µM

Question: What about the TGI (786-0 renal) of the same molecule?
Answer: > 100 µM

Question: What about the GI50 (SF-268 CNS) of the same molecule?
Answer: 67.7 µM

Question: What about the TGI (SF-268 CNS) of the same molecule?
Answer: > 100 µM

Question: And the GI50 (SF-295 CNS)?
Answer: > 100 µM

Question: And the TGI (SF-295 CNS)?
Answer: > 100 µM

Question: And the GI50 (SK-MEL-28 melanoma)?
Answer: 54.4 µM

Question: What about the TGI (SK-MEL-28 melanoma) of the same molecule?
Answer: > 100 µM

Question: What about the GI50 (EKVX NSCLC) of the same molecule?
Answer: 58.3 µM

Question: And the TGI (EKVX NSCLC)?
Answer: > 100 µM

Question: And the GI50 (A549 NSCLC)?
Answer: 18.8 µM

Question: What about the TGI (A549 NSCLC) of the same molecule?
Answer: > 100 µM

Question: And the GI50 (HOP-62 NSCLC)?
Answer: 47.7 µM

Question: And the TGI (HOP-62 NSCLC)?
Answer: > 100 µM

Question: What about the GI50 (MDA-MB-231 breast) of the same molecule?
Answer: 20 µM

Question: And the TGI (MDA-MB-231 breast)?
Answer: 88.4 µM

Question: What about the GI50 (DU-145 prostate) of the same molecule?
Answer: 16.6 µM

Question: And the TGI (DU-145 prostate)?
Answer: 53.1 µM

Question: And the GI50 (HCC-2998 colon)?
Answer: 37.9 µM

Question: What about the TGI (HCC-2998 colon) of the same molecule?
Answer: > 100 µM

Question: And the GI50 (UO-31 renal)?
Answer: 14.1 µM

Question: What about the TGI (UO-31 renal) of the same molecule?
Answer: > 100 µM

Question: What about the GI50 (K-562 leukemia) of the same molecule?
Answer: 6.46 µM

Question: And the TGI (K-562 leukemia)?
Answer: > 100 µM

Question: And the GI50 (A498 renal)?
Answer: > 100 µM

Question: What about the TGI (A498 renal) of the same molecule?
Answer: > 100 µM

Question: And the GI50 (MALME-3M melanoma)?
Answer: 11.3 µM

Question: And the TGI (MALME-3M melanoma)?
Answer: 24.9 µM

Question: And the GI50 (OVCAR-8 ovarian)?
Answer: 16.2 µM

Question: And the TGI (OVCAR-8 ovarian)?
Answer: 80.4 µM

Question: And the GI50 (HS 578T breast)?
Answer: 29.3 µM

Question: What about the TGI (HS 578T breast) of the same molecule?
Answer: > 100 µM

Question: What about the GI50 (U251 CNS) of the same molecule?
Answer: 18.4 µM

Question: What about the TGI (U251 CNS) of the same molecule?
Answer: 88.6 µM

Question: What about the GI50 (MDA-MB-468 breast) of the same molecule?
Answer: 3.78 µM

Question: What about the TGI (MDA-MB-468 breast) of the same molecule?
Answer: 20.2 µM

Question: And the GI50 (KM12 colon)?
Answer: > 100 µM

Question: What about the TGI (KM12 colon) of the same molecule?
Answer: > 100 µM

Question: What about the GI50 (HCT-116 colon) of the same molecule?
Answer: 12.5 µM

Question: What about the TGI (HCT-116 colon) of the same molecule?
Answer: 41.2 µM

Question: What about the GI50 (HL-60(TB) leukemia) of the same molecule?
Answer: 27.4 µM

Question: And the TGI (HL-60(TB) leukemia)?
Answer: > 100 µM

Question: And the GI50 (SK-MEL-2 melanoma)?
Answer: 40.1 µM

Question: What about the TGI (SK-MEL-2 melanoma) of the same molecule?
Answer: > 100 µM

Question: What about the GI50 (SW-620 colon) of the same molecule?
Answer: 11.3 µM

Question: And the TGI (SW-620 colon)?
Answer: 25.7 µM

Question: And the GI50 (RPMI-8226 leukemia)?
Answer: 16.7 µM

Question: What about the TGI (RPMI-8226 leukemia) of the same molecule?
Answer: > 100 µM

Question: What about the GI50 (SNB-19 CNS) of the same molecule?
Answer: 51 µM

Question: What about the TGI (SNB-19 CNS) of the same molecule?
Answer: > 100 µM

Question: What about the GI50 (RXF 393 renal) of the same molecule?
Answer: 10.8 µM

Question: What about the TGI (RXF 393 renal) of the same molecule?
Answer: 72.5 µM

Question: What about the GI50 (SN12C renal) of the same molecule?
Answer: 13.5 µM

Question: And the TGI (SN12C renal)?
Answer: 34.3 µM

Question: What about the GI50 (MCF7 breast) of the same molecule?
Answer: 1.78 µM

Question: What about the TGI (MCF7 breast) of the same molecule?
Answer: 34.6 µM

Question: What about the GI50 (COLO 205 colon) of the same molecule?
Answer: 18.9 µM

Question: What about the TGI (COLO 205 colon) of the same molecule?
Answer: 71.4 µM

Question: What about the GI50 (UACC-257 melanoma) of the same molecule?
Answer: 38.6 µM

Question: What about the TGI (UACC-257 melanoma) of the same molecule?
Answer: > 100 µM

Question: What about the GI50 (NCI/ADR-RES ovarian) of the same molecule?
Answer: 30.4 µM

Question: And the TGI (NCI/ADR-RES ovarian)?
Answer: > 100 µM

Question: And the GI50 (OVCAR-3 ovarian)?
Answer: 23 µM

Question: And the TGI (OVCAR-3 ovarian)?
Answer: > 100 µM

Question: What about the GI50 (SK-OV-3 ovarian) of the same molecule?
Answer: 62.6 µM

Question: What about the TGI (SK-OV-3 ovarian) of the same molecule?
Answer: > 100 µM

Question: What about the GI50 (NCI-H226 lung) of the same molecule?
Answer: 31.5 µM

Question: And the TGI (NCI-H226 lung)?
Answer: > 100 µM

Question: And the GI50 (HOP-92 NSCLC)?
Answer: 24.4 µM

Question: And the TGI (HOP-92 NSCLC)?
Answer: > 100 µM

Question: What about the GI50 (NCI-H23 lung) of the same molecule?
Answer: 17.1 µM

Question: What about the TGI (NCI-H23 lung) of the same molecule?
Answer: 53 µM

Question: What about the GI50 (T-47D breast) of the same molecule?
Answer: 14.3 µM

Question: And the TGI (T-47D breast)?
Answer: > 100 µM

Question: And the GI50 (MOLT-4 leukemia)?
Answer: 3.74 µM

Question: What about the TGI (MOLT-4 leukemia) of the same molecule?
Answer: 34.9 µM

Question: What about the GI50 (OVCAR-5 ovarian) of the same molecule?
Answer: 23.3 µM

Question: And the TGI (OVCAR-5 ovarian)?
Answer: > 100 µM

Question: And the GI50 (IGROV1 ovarian)?
Answer: 13.8 µM

Question: And the TGI (IGROV1 ovarian)?
Answer: 51.4 µM

Question: And the GI50 (LOX IMVI melanoma)?
Answer: 1.61 µM

Question: What about the TGI (LOX IMVI melanoma) of the same molecule?
Answer: 3.41 µM

Question: What about the GI50 (MDA-MB-435) of the same molecule?
Answer: 26.5 µM

Question: What about the TGI (MDA-MB-435) of the same molecule?
Answer: > 100 µM

Question: What about the GI50 (SK-MEL-5 melanoma) of the same molecule?
Answer: 29.1 µM

Question: And the TGI (SK-MEL-5 melanoma)?
Answer: > 100 µM

Question: And the GI50 (ACHN renal)?
Answer: 13.6 µM

Question: And the TGI (ACHN renal)?
Answer: 46.2 µM

Question: And the GI50 (SF-539 CNS)?
Answer: 16.8 µM

Question: What about the TGI (SF-539 CNS) of the same molecule?
Answer: 40.6 µM

Question: What about the GI50 (CCRF-CEM leukemia) of the same molecule?
Answer: 2.82 µM

Question: What about the TGI (CCRF-CEM leukemia) of the same molecule?
Answer: 8.8 µM

Question: What about the GI50 (HT29 colon) of the same molecule?
Answer: 11.8 µM

Question: And the TGI (HT29 colon)?
Answer: 33 µM
